Measured values as given in publication PMC5104769, “Concentration-Dependent Dual Mode of Zn Action at Serotonin 5-HT1A Receptors: In Vitro and In Vivo Studies” (Molecular neurobiology, 2015).

Columns and labels:
[1] = molecular target: T1, human 5-HT1AR stably expressed in HEK293 cells (Homo sapiens, UniProt P08908); assay: Competition and competition-like (Zn titration) binding against 2.5 nM [3H]-8-OH-DPAT; conditions: 2.5 nM radioligand
T1 construct: The full-length human 5HTR1A complementary DNA (cDNA); membranes prepared from the cells
T1 sequence (P08908 1-422): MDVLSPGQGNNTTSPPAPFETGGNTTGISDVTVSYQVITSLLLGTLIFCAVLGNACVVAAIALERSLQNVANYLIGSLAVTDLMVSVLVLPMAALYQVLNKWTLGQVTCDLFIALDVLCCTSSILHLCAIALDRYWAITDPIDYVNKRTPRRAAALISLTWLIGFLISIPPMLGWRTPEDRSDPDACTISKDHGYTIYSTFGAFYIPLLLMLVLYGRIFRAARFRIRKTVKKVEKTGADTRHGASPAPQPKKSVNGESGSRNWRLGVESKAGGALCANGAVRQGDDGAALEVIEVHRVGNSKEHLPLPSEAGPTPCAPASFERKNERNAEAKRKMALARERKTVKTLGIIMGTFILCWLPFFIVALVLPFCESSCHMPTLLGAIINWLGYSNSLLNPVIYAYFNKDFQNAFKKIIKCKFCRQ
Description: The full-length human 5HTR1A complementary DNA (cDNA), which was cloned into the mammalian expression vector pcDNA3.1(+), was obtained from the Missouri S&T cDNA Resource Center (www.cdna.org). The receptor cDNA was stably transfected into human embryonic kidney cells (HEK293, ATCC) with the use of Lipofectamine 2000 (Invitrogen).
Cell pellets were thawed and homogenized in 20 volumes of 50 mM Tris–HCl buffer (pH 7.7) containing 0.1 mM EDTA and 10 mM MgCl2, using an Ultra Turrax tissue homogenizer. The pellets were then centrifuged twice at 35,000g for 20 min at 4 °C, with incubation for 15 min at 37 °C in between centrifugations. Membranes were aliquoted in tubes. Membrane protein concentrations were determined using the Pierce™ Coomassie (Bradford) Protein Assay Kit, with bovine serum albumin (BSA) as a standard.
The incubation buffer consisted of 50 mM Tris–HCl (pH 7.7), 10 mM MgCl2, 10 mM pargyline and 0.1 % ascorbic acid. Radioligand binding assays were performed by incubating 30 μg of protein of the membrane suspension in 96-well microtitre plates for 60 min at room temperature with shaking, in a total volume of 200 μl. The binding reactions were stopped by filtration through GF/C Unifilter plates using a harvester (PerkinElmer). […] Radioactivity was measured using a MicroBeta TriLux counter (PerkinElmer).

[2] = tested on: Sprague Dawley rats; assay: Lower lip retraction (LLR) in rats; type: in vivo, rat; conditions: for Mean LLR score (A) VEH: max score 3/rat
Description: The experiments were performed on male Albino Swiss mice (23-25 g) and Sprague Dawley rats (200-250 g) from Charles River, Germany as well as […]-flx-YFP mice from Jackson Labs, Bangor ME and the Hen lab, respectively. The animals were kept under standard laboratory conditions with respect to lighting (light phase 7:00-19:00) and temperature (19-21 °C). Food and water were freely available. Each experimental group consisted of eight to ten animals. All of the animals were experimentally naive and were used only once in each test. The experiments were performed during the light period (9:00-14:00 h). All of the procedures were conducted according to the guidelines of the National Institutes of Health Animal Care and Use Committee and were approved by the Ethics Committees of the Institute of Pharmacology, Polish Academy of Sciences in Krakow and the Animal Care Committee, University of Ottawa. […] Controls were treated with the appropriate diluent, which was indicated as VEH on the graphs and in the tables. LLR was assessed according to the method described by Berendsen et al., [20]. The rats were individually placed in cages (30×25×25 cm) and were scored three times, 15, 30 and 45 min after the administration of Zn as follows: 0=lower incisors not visible, 0.5=partly visible and 1=completely visible. Zn was administered at doses of 2 and 5 mg Zn/kg (given as Zn hydroaspartate, Farmapol, Poland). The maximum total score was 3/rat. In addition, the effects of Zn and WAY-100635 (0.1 mg/kg; […] Sigma) were tested.

[3] = Body temperature in mice; type: in vivo, mouse; conditions: Zn 2 and 5 mg/kg i.p., 30 and 60 min after administration
Description: The experiments were performed on male Albino Swiss mice (23-25 g) and Sprague Dawley rats (200-250 g) from Charles River, Germany as well as […]-flx-YFP mice from Jackson Labs, Bangor ME and the Hen lab, respectively. The animals were kept under standard laboratory conditions with respect to lighting (light phase 7:00-19:00) and temperature (19-21 °C). Food and water were freely available. Each experimental group consisted of eight to ten animals. All of the animals were experimentally naive and were used only once in each test. The experiments were performed during the light period (9:00-14:00 h). All of the procedures were conducted according to the guidelines of the National Institutes of Health Animal Care and Use Committee and were approved by the Ethics Committees of the Institute of Pharmacology, Polish Academy of Sciences in Krakow and the Animal Care Committee, University of Ottawa. […] Controls were treated with the appropriate diluent, which was indicated as VEH on the graphs and in the tables. […] The results were expressed as a change in body temperature with respect to the basal body temperature, which was measured at the beginning of the experiments.

[4] = tested on: 5-HT3 receptor; parameters: method as in PMID 7620711; conditions: electrophysiology, cited from earlier work
[5] = parameters: method as in PMID 20617034; conditions: cited from earlier work

increase of [3H]-8-OH-DPAT specific binding ([1]; 10 μM of Zn, bell-shaped titration curve): ~ 25% | effect on [3H]-8-OH-DPAT specific binding ([1]; Zn at >100 μM): inhibition
SMILES: [Zn+2] [Zn, Zinc]
Mean LLR score (A) VEH ([2]; Zn 2 mg Zn/kg i.p. alone): 0.0±0.0 | Mean LLR score (B) 8-OH-DPAT 1 mg/kg ([2]; Zn 2 mg/kg 45 min before 8-OH-DPAT 1 mg/kg): 1.17±0.98 | Mean LLR score (A) VEH ([2]; Zn 5 mg Zn/kg i.p. alone): 0.0±0.0 | Mean LLR score (B) 8-OH-DPAT 1 mg/kg ([2]; Zn 5 mg/kg 45 min before 8-OH-DPAT 1 mg/kg): 0.46±0.75 | effect on LLR induced by 8-OH-DPAT (in words) ([2]; Zn 2 and 5 mg/kg or WAY-100635 0.1 mg/kg before 8-OH-DPAT 1 mg/kg): blocked the LLR induced by 8-OH-DPAT | induction of LLR (in words) ([2]; given alone: 8-OH-DPAT 1 mg/kg, Zn 2 and 5 mg/kg, WAY-100635 0.1 mg/kg): did not evoke LLR | change in body temperature [3]: significantly and dose-dependently decreased body temperature | Zn concentrations that depressed the 5-HT-induced response ([4]; high concentrations): 30 to 200 µM | Zn concentrations that enhanced the 5-HT-induced response ([4]; low concentrations): 0.3 to 10 µM | extracellular Zn level reported as neurotoxic [5]: over 300 μM
